From US7041785B1, “B1-bradykinin receptor antagonists and use thereof” (Université de Sherbrooke, priority 1996, dated 2006)
Where two headings read alike, the source gives them in different places. Non-standard residues stand in square brackets, D forms with d. Residues, ends and D or L forms follow the SMILES beside them. Oic = O=C(O)[C@@H]1C[C@@H]2CCCC[C@@H]2N1; 2Nal = N[C@@H](Cc1ccc2ccccc2c1)C(=O)O; d2Nal = N[C@H](Cc1ccc2ccccc2c1)C(=O)O; Hyp = O=C(O)[C@@H]1C[C@@H](O)CN1; Tic = O=C(O)[C@@H]1Cc2ccccc2CN1; dTic = O=C(O)[C@H]1Cc2ccccc2CN1; 2Thi = N[C@@H](Cc1cccs1)C(=O)O; Sar = CNCC(=O)O

Legend:
[1] = system: T1, angiotensin-converting enzyme (ACE); assay: Metabolic degradation by purified angiotensin-converting enzyme, HPLC analysis; type: in vitro ADME, rabbit; settings: rabbit, isolated enzyme ace, pH 7.5
T1 construct: purified angiotensin-converting enzyme (ACE) from rabbit lungs; purchased Sigma, St-Louis, Mo; host or cells: purified from rabbit lungs
Procedure: (§1) The metabolic stability of various kinin-related peptides was evaluated by incubating the peptide in the presence of purified angiotensin-converting enzyme (ACE) from rabbit lungs (purchased from Sigma, St-Louis, Mo.) dissolved in phosphate buffered saline (PBS) (50 mmol/L, pH 7.5 containing 300 mmoL/L NaCl); the final concentration of enzyme was 45 μg/mL. The experimental protocol for the measurement of ACE activity has been described elsewhere^15,16. Briefly, 200 μmol/L of peptides (40 μL) were placed in a PBS buffer and incubated for 5 min at 37EC before adding 8.5 μL of ACE (total volume of the reaction medium; 190 μL). Samples were withdrawn at 30 min intervals, immersed in boiling water for 5 min, then cooled on ice and centrifuged (5 min) before proceeding to analysis of peptides by high pressure liquid chromatography (HPLC). Results of ACE metabolism are expressed in percent of kinin degradation following the incubation (30 min) of kinin substrates with the enzyme.
(§2) Pure peptides and metabolic products were analysed by reverse-phas HPLC on a C18 μBondapak column (4.6 mm×25 cm) (Waters) of 10-μm particle size. The peptides and their fragments were eluted at the rate of 2.0 mL/min. with a linear gradient ranging from 5 to 65% of acetonitrile/TFA 0.05%/water over 20 min. at room temperature. The elution positions of these peptides were determined by following the absorbance at 214 nm. For each assay, 50 μL of the reaction medium (treated or not with ACE) were extracted and injected into the column. Concentrations of the peaks products, different from the peaks of the peptide substrate, were estimated using a computer software program (Baseline 810; Waters) that controlled also all the chromatography operations. Isolated metabolites and substrates were collected and identified by Electrospray mass spectrometry (positive mode).

[2] = molecular target: T2, angiotensin-converting enzyme (ACE) from rabbit lungs (Oryctolagus cuniculus, UniProt P12822); assay: as above; type: in vitro ADME; set-up: purified angiotensin-converting enzyme (ACE) from rabbit lungs; purchased Sigma, St-Louis, Mo; host or cells: purified from rabbit lungs
T2 sequence (P12822 34-1310): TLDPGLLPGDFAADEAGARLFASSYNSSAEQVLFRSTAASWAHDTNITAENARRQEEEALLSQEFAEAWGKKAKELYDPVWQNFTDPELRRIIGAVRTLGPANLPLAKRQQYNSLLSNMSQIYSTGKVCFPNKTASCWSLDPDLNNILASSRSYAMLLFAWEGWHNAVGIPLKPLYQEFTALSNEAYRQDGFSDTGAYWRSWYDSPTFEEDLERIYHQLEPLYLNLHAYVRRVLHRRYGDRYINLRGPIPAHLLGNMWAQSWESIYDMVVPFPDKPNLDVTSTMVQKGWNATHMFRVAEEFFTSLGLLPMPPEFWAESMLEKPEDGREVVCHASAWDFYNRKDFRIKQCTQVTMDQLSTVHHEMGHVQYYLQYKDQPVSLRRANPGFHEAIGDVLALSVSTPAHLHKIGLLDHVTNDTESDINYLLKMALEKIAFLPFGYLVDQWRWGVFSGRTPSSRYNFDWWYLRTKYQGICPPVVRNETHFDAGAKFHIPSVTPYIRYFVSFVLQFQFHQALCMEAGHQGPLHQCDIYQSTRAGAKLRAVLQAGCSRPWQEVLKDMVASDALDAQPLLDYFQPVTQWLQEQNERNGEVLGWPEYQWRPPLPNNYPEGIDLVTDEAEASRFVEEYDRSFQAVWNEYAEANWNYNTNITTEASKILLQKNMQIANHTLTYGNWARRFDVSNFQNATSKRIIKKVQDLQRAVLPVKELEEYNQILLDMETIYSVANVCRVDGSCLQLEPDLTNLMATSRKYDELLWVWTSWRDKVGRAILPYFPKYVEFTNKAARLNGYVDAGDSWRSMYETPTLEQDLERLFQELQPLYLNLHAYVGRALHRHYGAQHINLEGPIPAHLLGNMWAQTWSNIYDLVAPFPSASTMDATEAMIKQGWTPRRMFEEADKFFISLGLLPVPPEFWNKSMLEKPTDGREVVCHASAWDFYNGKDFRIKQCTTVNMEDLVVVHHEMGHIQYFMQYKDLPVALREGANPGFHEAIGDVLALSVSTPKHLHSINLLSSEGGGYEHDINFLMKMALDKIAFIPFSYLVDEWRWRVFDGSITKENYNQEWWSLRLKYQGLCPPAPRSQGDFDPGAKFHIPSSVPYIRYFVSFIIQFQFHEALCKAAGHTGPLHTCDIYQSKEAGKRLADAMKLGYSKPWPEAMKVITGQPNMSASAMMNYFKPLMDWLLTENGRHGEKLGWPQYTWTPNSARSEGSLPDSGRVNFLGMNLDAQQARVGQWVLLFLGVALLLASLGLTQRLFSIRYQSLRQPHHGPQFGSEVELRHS
Procedure: as §1, §2

[3] = 30 min incubation of peptide (200 μmol/L) with ACE, 37 C, read-out: ACE (% degradation)

Row | SMILES | metabolised at 0.5 h [1] [%] | Less susceptible to ACE proteolytic degradation, relative to Lys(Leu8)desArgBK [2] | metabolised at 0.5 h [1, 3] [%] | metabolised at 0.5 h, 42.1 μmol/L [1] [%]
1 | CC(C)C[C@H](NC(=O)[C@H]1Cc2ccccc2CN1C(=O)[C@H](CO)NC(=O)[C@H](Cc1ccccc1)NC(=O)CNC(=O)[C@@H]1CCCN1C(=O)[C@@H]1CCCN1C(=O)[C@@H](N)CCCNC(=N)N)C(=O)O [Compound 8, (D-Tic^7, Leu^8)desArg^9BK] (H-RPPGFS[dTic]L-OH; N-terminus and C-terminus assumed) | 0 | 2-5 times |  | 
2 | CNCC(=O)N[C@@H](CCCNC(=N)N)C(=O)N1CCC[C@H]1C(=O)N1CCC[C@H]1C(=O)NCC(=O)N[C@@H](Cc1ccccc1)C(=O)N[C@@H](CO)C(=O)N1Cc2ccccc2C[C@@H]1C(=O)N[C@@H](CC(C)C)C(=O)O [Compound 9, Sar(D-Tic^7, Leu^8)desArg^9BK] (H-[Sar]RPPGFS[dTic]L-OH; N-terminus and C-terminus assumed) |  | 2-5 times | 0 | 
3 | CC(C)C[C@H](NC(=O)[C@H]1Cc2ccccc2CN1C(=O)[C@H](CO)NC(=O)[C@H](Cc1ccccc1)NC(=O)CNC(=O)[C@@H]1CCCN1C(=O)[C@@H]1CCCN1C(=O)[C@H](CCCNC(=N)N)NC(=O)[C@H](N)CCCNC(=N)N)C(=O)O [Compound 12, D-Arg(D-Tic^7, Leu^8)desArg^9BK] (H-[dR]RPPGFS[dTic]L-OH; N-terminus and C-terminus assumed) | 0 | 2-5 times |  | 
4 | CC[C@H](C)[C@H](NC(=O)[C@H]1Cc2ccccc2CN1C(=O)[C@H](CO)NC(=O)[C@H](Cc1ccccc1)NC(=O)CNC(=O)[C@@H]1CCCN1C(=O)[C@@H]1CCCN1C(=O)[C@H](CCCNC(=N)N)NC(=O)[C@H](N)CCCNC(=N)N)C(=O)O [Compound 13, D-Arg(D-Tic^7, Ile^8)desArg^9BK] (H-[dR]RPPGFS[dTic]I-OH; N-terminus and C-terminus assumed) | 9 ± 1 | 2-5 times |  | 
5 | CC[C@H](C)[C@H](NC(=O)[C@@H]1Cc2ccccc2CN1C(=O)[C@H](CO)NC(=O)[C@H](Cc1ccccc1)NC(=O)CNC(=O)[C@@H]1CCCN1C(=O)[C@@H]1CCCN1C(=O)[C@H](CCCNC(=N)N)NC(=O)[C@H](N)CCCNC(=N)N)C(=O)O [Compound 14, D-Arg(L-Tic^7, Ile^8)desArg^9BK] (H-[dR]RPPGFS[Tic]I-OH; N-terminus and C-terminus assumed) | 77 ± 3 |  |  | 
6 | CC(C)C[C@H](NC(=O)[C@H]1Cc2ccccc2CN1C(=O)[C@H](CO)NC(=O)[C@H](Cc1ccccc1)NC(=O)CNC(=O)[C@@H]1C[C@@H](O)CN1C(=O)[C@@H]1CCCN1C(=O)[C@H](CCCNC(=N)N)NC(=O)[C@H](N)CCCNC(=N)N)C(=O)O [Compound 17, D-Arg(Hyp^3, D-Tic^7, Leu^8)desArg^9BK] (H-[dR]RP[Hyp]GFS[dTic]L-OH; N-terminus and C-terminus assumed) | 0 | 2-5 times |  | 
7 | CC(=O)N[C@@H](CCCCN)C(=O)N[C@@H](CCCNC(=N)N)C(=O)N1CCC[C@H]1C(=O)N1CCC[C@H]1C(=O)NCC(=O)N[C@@H](Cc1ccccc1)C(=O)N[C@@H](CO)C(=O)N[C@H](Cc1ccc2ccccc2c1)C(=O)N[C@@H](CC(C)C)C(=O)O [Compound 18, AcLys(D-βNal^7, Leu^8)desArg^9BK] (Ac-KRPPGFS[d2Nal]L-OH; C-terminus assumed) |  | 2-5 times |  | 22 ± 1
8 | CC[C@H](C)[C@H](NC(=O)[C@@H](Cc1ccc2ccccc2c1)NC(=O)[C@H](CO)NC(=O)[C@H](Cc1ccccc1)NC(=O)CNC(=O)[C@@H]1CCCN1C(=O)[C@@H]1CCCN1C(=O)[C@H](CCCN=C(N)N)NC(=O)[C@H](CCCCN)NC(C)=O)C(=O)O [Compound 19, AcLys(D-βNal^7, Ile^8)desArg^9BK] (Ac-KRPPGFS[d2Nal]I-OH) |  | 2-5 times |  | 34 ± 1
9 | CC[C@H](C)[C@H](NC(=O)[C@H](Cc1ccc2ccccc2c1)NC(=O)[C@H](CO)NC(=O)[C@H](Cc1ccccc1)NC(=O)CNC(=O)[C@@H]1CCCN1C(=O)[C@@H]1CCCN1C(=O)[C@H](CCCNC(=N)N)NC(=O)[C@H](CCCCN)NC(C)=O)C(=O)O [Compound 20, AcLys(L-βNal^7, Ile^8)desArg^9BK] (Ac-KRPPGFS[2Nal]I-OH; C-terminus assumed) |  |  |  | 99 ± 1
10 | CC[C@H](C)[C@H](NC(=O)[C@@H](Cc1ccc2ccccc2c1)NC(=O)[C@H](CO)NC(=O)[C@H](Cc1ccccc1)NC(=O)CNC(=O)[C@@H]1CCCN1C(=O)[C@@H]1CCCN1C(=O)[C@H](CCCNC(=N)N)NC(=O)[C@H](N)CCCNC(=N)N)C(=O)O [Compound 23, D-Arg(D-βNal^7, Ile^8)desArg^9BK] (H-[dR]RPPGFS[d2Nal]I-OH; N-terminus and C-terminus assumed) |  | 2-5 times |  | 8 ± 1
11 | CC(C)C[C@H](NC(=O)[C@@H](Cc1ccc2ccccc2c1)NC(=O)[C@H](CO)NC(=O)[C@H](Cc1ccccc1)NC(=O)CNC(=O)[C@@H]1CCCN1C(=O)[C@@H]1CCCN1C(=O)[C@H](CCCNC(=N)N)NC(=O)[C@H](N)CCCNC(=N)N)C(=O)O [Compound 24, D-Arg(D-βNal^7, Leu^8)desArg^9BK] (H-[dR]RPPGFS[d2Nal]L-OH; N-terminus and C-terminus assumed) |  | 2-5 times |  | 5 ± 1
12 | CC[C@H](C)[C@H](NC(=O)[C@@H](Cc1ccc2ccccc2c1)NC(=O)[C@H](CO)NC(=O)[C@H](Cc1ccccc1)NC(=O)CNC(=O)[C@@H]1CCCN1C(=O)[C@@H]1CCCN1C(=O)[C@H](CCCNC(=N)N)NC(=O)[C@H](N)CCCCN)C(=O)O [Compound 25, D-Lys(D-βNal^7, Ile^8)desArg^9BK] (H-[dK]RPPGFS[d2Nal]I-OH; N-terminus and C-terminus assumed) |  | 2-5 times |  | 9 ± 2
13 | N=C(N)NCCC[C@@H](N)C(=O)N[C@@H](CCCNC(=N)N)C(=O)N1CCC[C@H]1C(=O)N1C[C@H](O)C[C@H]1C(=O)NCC(=O)N[C@@H](Cc1cccs1)C(=O)N[C@@H](CO)C(=O)N1Cc2ccccc2C[C@@H]1C(=O)N1[C@H](C(=O)O)C[C@@H]2CCCC[C@@H]21 [Compound 31, D-Arg(Hyp^3, Thi^5, D-Tic^7, Oic^8)desArg^9BK, reference compound] (H-[dR]RP[Hyp]G[2Thi]S[dTic][Oic]-OH; N-terminus and C-terminus assumed) |  |  | 0 | 
